Experimental data reported in patent US11685900B2, “Nanofiber-based long-term primary hepatocyte three-dimensional culture system and culturing method” (NANOFAENTECH CO., LTD., priority 2017, dated 2023).

System: primary hepatocytes
Conditions: mouse, 24 h
Protocol: Fifty μL of the sample to be quantified and 100 μL of acetonitrile were mixed, centrifuged at 14000 rpm for 10 minutes and the obtained supernatant (130 μL) was dried in nitrogen gas and was dissolved in a solution (10 mM potassium phosphate:acetonitrile, 65%:35% (v/v)) and measured by HPLC (Shimazu Prominence LC-20A) at flow rate of 1 mL/min and at an absorbance of 245 nm for 10 minutes.

`CCOc1ccc(NC(C)=O)cc1` [phenacetin] was tested, and the “decrease of the drug administered” value (50 μM) was 75-85%, the “concentration of phenacetin detected in the culture” value (500 μM) was 350 to 400 µM and the “concentration of phenacetin detected in the culture medium” value (500 μM) was 350 µM. For the same compound, the “concentration of phenacetin measured in the culture” value (500 μM) was “about 200 μM”.
